Series [1] in a line: Assay for Brain Penetrance. Format: in vivo. The conditions noted are these: brain and plasma, rat, single intravenous dose 1 mg/kg, read-out: brain to plasma ratio. The method, then:
Each rat received a single intravenous dose at a level of 1 mg/kg. The dose was formulated in 10% DMSO/50% PEG200/40% sterile water. Terminal blood samples were taken at 5 or 15 mins after dosing, by cardiac puncture following anaesthesia with isofluorane. The brains were removed at the same time point.
The compounds were extracted from 20 μL plasma by protein precipitation using 120 μL acetonitrile containing an analogue compound as an internal standard. The filtered extracts were collected into a 96 well plate and were diluted with an equal volume of 10% acetonitrile containing 0.1% formic acid in water (v/v). The plate was then mixed on a plate shaker for at least 5 mins before analysis by LC-MS/MS against a calibration line prepared in control plasma.
Each brain was weighed, then homogenised in 3 ml acetonitrile:water (10:90v/v). The compounds were extracted from 200 μL of the resulting homogenate by protein precipitation using 600 μL acetonitrile containing an analogue compound as an internal standard. The extracts were centrifuged and 150 μl of each was filtered and transferred to a 96 well plate. The aliquot was diluted with 10% acetonitrile containing 0.1% formic acid in water (v/v). The plate was mixed on a plate shaker for at least 5 mins before analysis by LC-MS/MS against a calibration line prepared in control brain homogenate.

In the next series the target is T1, GR (Homo sapiens, UniProt P04150).
T1 construct: endogenous in cells; host or cells: A549 (human lung carcinoma, ECACC No. 86012804), stably transfected with reporter plasmids only
T1 sequence (P04150 1-777): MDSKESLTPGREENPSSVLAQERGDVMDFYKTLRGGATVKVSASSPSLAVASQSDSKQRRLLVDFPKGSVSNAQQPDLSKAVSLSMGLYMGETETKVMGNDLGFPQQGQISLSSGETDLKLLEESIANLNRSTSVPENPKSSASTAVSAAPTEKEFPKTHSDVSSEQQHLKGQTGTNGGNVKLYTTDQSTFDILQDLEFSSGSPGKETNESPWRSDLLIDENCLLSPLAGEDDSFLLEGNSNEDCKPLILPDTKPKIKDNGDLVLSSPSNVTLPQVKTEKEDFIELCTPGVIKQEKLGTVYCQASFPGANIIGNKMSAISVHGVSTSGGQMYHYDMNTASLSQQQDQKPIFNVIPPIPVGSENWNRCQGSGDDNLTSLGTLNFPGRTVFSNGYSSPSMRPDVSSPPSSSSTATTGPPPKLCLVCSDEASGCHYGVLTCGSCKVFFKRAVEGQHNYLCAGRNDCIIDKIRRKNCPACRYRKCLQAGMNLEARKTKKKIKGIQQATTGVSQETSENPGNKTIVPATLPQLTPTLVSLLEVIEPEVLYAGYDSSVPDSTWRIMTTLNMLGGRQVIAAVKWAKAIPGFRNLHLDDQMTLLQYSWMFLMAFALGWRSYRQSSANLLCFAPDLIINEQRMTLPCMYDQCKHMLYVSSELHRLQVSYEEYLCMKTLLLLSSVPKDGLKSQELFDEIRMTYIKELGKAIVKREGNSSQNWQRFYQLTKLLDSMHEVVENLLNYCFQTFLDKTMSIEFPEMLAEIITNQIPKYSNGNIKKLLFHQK
Briefly: GR Functional Assay - NFκB Assay (A549 SPAP cells, TNFα stimulated). Format: cell-based. Particulars: for Emax: agonists, read-out: average maximum asymptote in the NFkB assay. In a few lines: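 Stably transfected A549 SPAP cells at 0.16×10^6/ml in DMEM with 10% FCS were added to compound and stimulated with TNFα to drive NFκB-dependent SPAP expression. After 1 hr equilibration at room temperature, SPAP was read colorimetrically with pNPP in diethanolamine buffer, pH 9.8.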

[2] abbreviates: at least once in the NFkB assay, A549 SPAP cells, read-out: pIC50 in the NFkB assay (converted).
Where [3] appears, read: at least once, examples listed as agonists in NFkB and MMTV assays, read-out: potency pIC50 in the NFKB assay (converted).

Molecules are shown by their SMILES. Read-outs that look alike come from different tables or passages of the source.

Consider 3 compounds from patent US20100035926A1, “PYRAZOLE DERIVATIVES AS NON-STEROIDAL GLUCOCORTICOID RECEPTOR LIGANDS” (priority 2006, published 2010).

Consider `Nc1c(C(=O)NCC(O)(CN(CCF)C(=O)c2ccccc2)C(F)(F)F)cnn1-c1ccc(F)cc1` (racemic) [Example 1 (racemic), 5-Amino-1-(4-fluorophenyl)-N-(3,3,3-trifluoro-2-{[(2-fluoroethyl)(phenylcarbonyl)amino]methyl}-2-hydroxypropyl)-1H-pyrazole-4-carboxamide], for which the Kp at 5 min in series [1] was at least 0.1. In addition, on GR (A549 SPAP cells), the Emax is at least 40%. In addition, the IC50 on GR (setting [2]) is under 1000 nM; at GR (setting [3]) it was under 316 nM.
`Nc1c(C(=O)NCC(O)(CN(CCF)C(=O)c2ccccc2F)C(F)(F)F)cnn1-c1ccc(F)cc1` (racemic) [Example 2 (racemic), 5-Amino-1-(4-fluorophenyl)-N-[3,3,3-trifluoro-2-([(2-fluoroethyl)[(2-fluorophenyl)carbonyl]amino]methyl)-2-hydroxypropyl]-1H-pyrazole-4-carboxamide]: in series [1], the Kp at 5 min was at least 0.1. Moreover, the Emax at GR (A549 SPAP cells) is at least 40%. The IC50 at GR (setting [2]) was under 1000 nM; at GR (setting [3]), under 316 nM.
In the same order, the values of `CCN(CC(O)(CNC(=O)c1cnn(-c2ccc(F)cc2)c1N)C(F)(F)F)C(=O)c1cccc(F)c1F` (racemic) [Example 5 (racemic), 5-Amino-N-(2-{[[(2,3-difluorophenyl)carbonyl](ethyl)amino]methyl}-3,3,3-trifluoro-2-hydroxypropyl)-1-(4-fluorophenyl)-1H-pyrazole-4-carboxamide] are at least 0.1, at least 40%, under 1000 nM and under 316 nM.
